# Measurements: patent US7910556B2, “PAR-2 agonist” (Kowa Company, Ltd., priority 2004, dated 2011)
# Square brackets hold non-standard residues; d marks the D form. Ends that are not written are not given here. Peptide text beside a SMILES is read from it. * marks the point of attachment. Arg(NO2) = N=C(NCCC[C@H](N)C(=O)O)N[N+](=O)[O-]; NHCH2CH2(piperidin-1-yl) = C1CCN(CCN*)CC1; Benzofuran(2-CO) = O=C(c1cc2ccccc2o1)*; Imidazole4carbonyl = O=C(c1cnc[nH]1)*; Isoxazole(3-carbonyl) = O=C(c1ccon1)*; Cha = N[C@@H](CC1CCCCC1)C(=O)O; Nicotinoyl = O=C(c1cccnc1)*; Picolinoyl = O=C(c1ccccn1)*; 2Furoyl = O=C(c1ccco1)*; X1 = Cc1cc(C(=O)*)oc1C; X2 = O=C(c1ccc(Br)o1)*; Bz = O=C(c1ccccc1)*
# T1: PAR-2 (Homo sapiens, UniProt P55085)
# T1 sequence (P55085 26-397): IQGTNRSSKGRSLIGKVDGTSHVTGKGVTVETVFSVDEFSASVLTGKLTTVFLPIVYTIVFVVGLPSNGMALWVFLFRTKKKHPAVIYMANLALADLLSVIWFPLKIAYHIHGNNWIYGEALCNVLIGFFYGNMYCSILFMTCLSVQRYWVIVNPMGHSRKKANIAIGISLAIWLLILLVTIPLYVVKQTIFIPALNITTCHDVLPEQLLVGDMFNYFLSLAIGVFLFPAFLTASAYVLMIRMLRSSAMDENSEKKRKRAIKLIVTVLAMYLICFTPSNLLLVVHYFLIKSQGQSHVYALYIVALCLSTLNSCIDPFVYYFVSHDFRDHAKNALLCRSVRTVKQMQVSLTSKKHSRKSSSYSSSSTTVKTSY
# T2: human PAR-2 (Protease-activated receptor-2) (human, UniProt P55085 37-397)
# T2 sequence (looked up): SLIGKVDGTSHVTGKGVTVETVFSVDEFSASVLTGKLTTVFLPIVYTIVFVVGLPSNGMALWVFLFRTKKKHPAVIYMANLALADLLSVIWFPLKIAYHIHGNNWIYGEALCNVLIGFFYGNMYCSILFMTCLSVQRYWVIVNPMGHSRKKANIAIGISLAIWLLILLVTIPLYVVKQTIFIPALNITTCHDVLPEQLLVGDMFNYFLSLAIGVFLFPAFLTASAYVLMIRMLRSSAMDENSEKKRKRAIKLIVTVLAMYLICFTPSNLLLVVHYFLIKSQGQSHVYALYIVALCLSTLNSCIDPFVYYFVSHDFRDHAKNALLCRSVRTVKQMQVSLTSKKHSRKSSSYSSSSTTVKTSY
# Biological target: human PAR-2 (Protease-activated receptor-2) (human) (UniProt P55085)
# Assay: cell-based or functional assay
# Details: not given
row,"Agonist activity (EC50, µM); intracellular calcium, HCT-15 cells [µM]",Molecule
1,1.6,nicotinoyl-β-cyclohexyl-L-alanyl-glycyl-glycyl-β-cyclohexyl-L-alanine 2-(1-piperidinyl)ethyl amide (peptide)
2,16.5,"4,5-dimethyl-2-furoyl-β-cyclohexyl-L-alanyl-glycyl-glycyl-β-cyclohexyl-L-alanine 2-(1-piperidinyl)ethyl amide (peptide)"
3,7.6,picolinoyl-β-cyclohexyl-L-alanyl-glycyl-glycyl-β-cyclohexyl-L-alanine 2-(1-piperidinyl)ethyl amide (peptide)
4,16.5,2-furoyl-β-cyclohexyl-L-alanyl-glycyl-glycyl-β-cyclohexyl-L-alanine 2-(1-piperidinyl)ethyl amide (peptide)
5,6.6,isoxazole-3-carbonyl-β-cyclohexyl-L-alanyl-glycyl-glycyl-β-cyclohexyl-L-alanine 2-(1-piperidinyl)ethyl amide (peptide)
6,14.9,imidazole-4-carbonyl-β-cyclohexyl-L-alanyl-glycyl-glycyl-β-cyclohexyl-L-alanine 2-(1-piperidinyl)ethyl amide (peptide)
7,0.8,benzofuran-2-carbonyl-β-cyclohexyl-L-alanyl-glycyl-glycyl-β-cyclohexyl-L-alanine 2-(1-piperidinyl)ethyl amide (peptide)

# The remaining lines, values behind:
row,Molecule,"Agonist activity (EC50, µM); intracellular calcium, HCT-15 cells [µM]"
1,5-bromo-2-furoyl-β-cyclohexyl-L-alanyl-glycyl-glycyl-β-cyclohexyl-L-alanine 2-(1-piperidinyl)ethyl amide (peptide),0.7
2,2-furoyl-L-phenylalanyl-glycyl-glycyl-β-cyclohexyl-L-alanine 2-(1-piperidinyl)ethyl amide (peptide),2.9

# Biological target: T1, PAR-2
# Assay: not given
# Details: relative to TRAP (tethered receptor agonist peptide); cited from earlier work
row,Molecule,"PAR-2 activation, action strength relative to TRAP"
1,CC(C)C[C@H](NC(=O)[C@H](CCCNC(=N)N[N+](=O)[O-])NC(=O)c1ccccc1)C(N)=O [N^60-benzoyl-Arg(NO2)-Leu-NH2] (Bz-[Arg(NO2)]-Leu-NH2),about one of hundred action strength of TRAP

# Biological target: T1, PAR-2
# Assay: Intracellular calcium dynamics assay (modified Hawthorne et al. method) in HCT-15 cells
# Assay type: cell-based
# Set-up: endogenous in cells; host or cells: HCT-15 human colorectal adenocarcinoma cells
# Details: not given
# Text: The PAR-2 activation of peptide derivatives represented by the general formula (1) can be tested by known various methods. For example, PAR-2 activation of peptide derivates can be tested by the methods namely, “Hollenberg method” (Hollenberg, M. D., et al., Can. J. Physiol. Pharmacol., 75, 832-841 (1997)), “Kawabata et al. method” (Kawabata, A., et al., J. Pharmacol. Exp. Ther., 288, 358-370 (1999)), “Howthorne et al. method” (Howthorne et al., A High-Throughput Microtiter Plate-Based Calcium Assay for the Study of Protease-Activated Receptor 2 Activation, Analytical Biochemistry 290, 378-379 (2001)), and the like. The present inventors tested PAR-2 activation potency by the modified “Hawthorne et al. method”. More specifically the method is to assay intracellular calcium dynamic expressing human PAR-2 inherently. In this assay, under probenecid inhibiting anion-exchange transporter the inventors measured intracellular calcium dynamic mediated PAR-2 agonist(concentration variation) by a multiple-well plate reader wherein introducing Ca^2+ sensitive fluorescent dye and stimulating this cell by PAR-2 agonist.
# This method is explained below in more detail.
# Thereafter, the cells were stimulated with various concentration test compounds and measured at an excitation wavelength of 485 nm and at a measurement wavelength of 525 nm (cut-off 515 nm) with a fluorometer scanning a multiple well (Flex Station, Molecular Devices). As a comparative compound, SLIGKV-OH which is a known PAR-2 activated peptide was used.
row,Molecule,EC50 [µM]
1,"O=C(CNC(=O)[C@H](CC1CCCCC1)NC(=O)c1ccc(Br)o1)NCC(=O)N[C@@H](CC1CCCCC1)C(=O)NCCN1CCCCC1 [Example 3, 5-bromo-2-furoyl-β-cyclohexyl-L-alanyl-glycyl-glycyl-β-cyclohexyl-L-alanine 2-(1-piperidinyl)ethyl amide] (X2-[Cha]GG[Cha]-{NHCH2CH2(piperidin-1-yl)})",0.7 ± 0.2
2,"O=C(CNC(=O)[C@H](CC1CCCCC1)NC(=O)c1ccccn1)NCC(=O)N[C@@H](CC1CCCCC1)C(=O)NCCN1CCCCC1 [Example 7, picolinoyl-β-cyclohexyl-L-alanyl-glycyl-glycyl-β-cyclohexyl-L-alanine 2-(1-piperidinyl)ethyl amide] (Picolinoyl-[Cha]GG[Cha]-{NHCH2CH2(piperidin-1-yl)})",7.6 ± 2.6
3,"O=C(CNC(=O)[C@H](CC1CCCCC1)NC(=O)c1ccco1)NCC(=O)N[C@@H](CC1CCCCC1)C(=O)NCCN1CCCCC1 [Example 1, 2-furoyl-β-cyclohexyl-L-alanyl-glycyl-glycyl-β-cyclohexyl-L-alanyine 2-(1-piperidinyl)ethyl amide] (2Furoyl-[Cha]GG[Cha]-{NHCH2CH2(piperidin-1-yl)})",16.5 ± 3.4
4,"O=C(CNC(=O)[C@H](CC1CCCCC1)NC(=O)c1ccon1)NCC(=O)N[C@@H](CC1CCCCC1)C(=O)NCCN1CCCCC1 [Example 6, isoxazole-3-carbonyl-β-cyclohexyl-L-alanyl-glycyl-glycyl-β-cyclohexyl-L-alanine 2-(1-piperidinyl)ethyl amide] ({Isoxazole(3-carbonyl)}-[Cha]GG[Cha]-{NHCH2CH2(piperidin-1-yl)})",6.6 ± 3.1
5,"O=C(CNC(=O)[C@H](CC1CCCCC1)NC(=O)c1cnc[nH]1)NCC(=O)N[C@@H](CC1CCCCC1)C(=O)NCCN1CCCCC1 [Example 9, imidazole-4-carbonyl-β-cyclohexyl-L-alanyl-glycyl-glycyl-β-cyclohexyl-L-alanine 2-(1-piperidinyl)ethyl amide] (Imidazole4carbonyl-[Cha]GG[Cha]-{NHCH2CH2(piperidin-1-yl)})",14.9 ± 1.3
6,"O=C(CNC(=O)[C@H](Cc1ccccc1)NC(=O)c1ccco1)NCC(=O)N[C@@H](CC1CCCCC1)C(=O)NCCN1CCCCC1 [Example 2, 2-furoyl-L-phenylalanyl-glycyl-glycyl-β-cyclohexyl-L-alanine 2-(1-piperidinyl)ethyl amide] (2Furoyl-FGG[Cha]-{NHCH2CH2(piperidin-1-yl)})",2.9 ± 0.6
7,"O=C(CNC(=O)[C@H](CC1CCCCC1)NC(=O)c1cc2ccccc2o1)NCC(=O)N[C@@H](CC1CCCCC1)C(=O)NCCN1CCCCC1 [Example 5, benzofuran-2-carbonyl-β-cyclohexyl-L-alanyl-glycyl-glycyl-β-cyclohexyl-L-alanine 2-(1-piperidinyl)ethyl amide] ({Benzofuran(2-CO)}-[Cha]GG[Cha]-{NHCH2CH2(piperidin-1-yl)})",0.8 ± 0.2
8,"O=C(CNC(=O)[C@H](CC1CCCCC1)NC(=O)c1cccnc1)NCC(=O)N[C@@H](CC1CCCCC1)C(=O)NCCN1CCCCC1 [Example 4, nicotinoyl-β-cyclohexyl-L-alanyl-glycyl-glycyl-β-cyclohexyl-L-alanine 2-(1-piperidinyl)ethyl amide] (Nicotinoyl-[Cha]GG[Cha]-{NHCH2CH2(piperidin-1-yl)})",1.6 ± 0.1

# Same assay, conditions: HCT-15 cells, calcium assay; statement in words
row,Molecule,agonist activation compared with the comparative peptide SLIGKV-OH
1,"Cc1cc(C(=O)N[C@@H](CC2CCCCC2)C(=O)NCC(=O)NCC(=O)N[C@@H](CC2CCCCC2)C(=O)NCCN2CCCCC2)oc1C [Example 8, 4,5-dimethyl-2-furoyl-β-cyclohexyl-L-alanyl-glycyl-glycyl-β-cyclohexyl-L-alanine 2-(1-piperidinyl)ethyl amide] (X1-[Cha]GG[Cha]-{NHCH2CH2(piperidin-1-yl)})",almost same as the comparative peptide
2,"O=C(CNC(=O)[C@H](CC1CCCCC1)NC(=O)c1ccco1)NCC(=O)N[C@@H](CC1CCCCC1)C(=O)NCCN1CCCCC1 [Example 1, 2-furoyl-β-cyclohexyl-L-alanyl-glycyl-glycyl-β-cyclohexyl-L-alanyine 2-(1-piperidinyl)ethyl amide] (2Furoyl-[Cha]GG[Cha]-{NHCH2CH2(piperidin-1-yl)})",almost same as the comparative peptide
3,"O=C(CNC(=O)[C@H](CC1CCCCC1)NC(=O)c1cnc[nH]1)NCC(=O)N[C@@H](CC1CCCCC1)C(=O)NCCN1CCCCC1 [Example 9, imidazole-4-carbonyl-β-cyclohexyl-L-alanyl-glycyl-glycyl-β-cyclohexyl-L-alanine 2-(1-piperidinyl)ethyl amide] (Imidazole4carbonyl-[Cha]GG[Cha]-{NHCH2CH2(piperidin-1-yl)})",almost same as the comparative peptide

# Same assay, conditions: HCT-15 human colorectal adenocarcinoma cells expressing PAR-2 inherently; Ca2+ sensitive fluorescent dye, 2.5 mM probenecid; read-out: Agonist activity (EC50)
row,EC50 [µM],Molecule
1,16.5 ± 2.1,"Cc1cc(C(=O)N[C@@H](CC2CCCCC2)C(=O)NCC(=O)NCC(=O)N[C@@H](CC2CCCCC2)C(=O)NCCN2CCCCC2)oc1C [Example 8, 4,5-dimethyl-2-furoyl-β-cyclohexyl-L-alanyl-glycyl-glycyl-β-cyclohexyl-L-alanine 2-(1-piperidinyl)ethyl amide] (X1-[Cha]GG[Cha]-{NHCH2CH2(piperidin-1-yl)})"

# Biological target: T2, human PAR-2 (Protease-activated …)
# Assay: cell-based or functional assay
# Details: not given
row,"Agonist activity (EC50, µM); intracellular calcium, HCT-15 cells [µM]",Molecule
1,15.6,SLIGKV-OH [SLIGKV-OH (Ser-Leu-Ile-Gly-Lys-Val-OH)]
